Measured values from a melting point compilation (Tetko et al.; mined from patent text by program, amines drawn as free bases though some values may be those of a salt).

`CCCCc1nc(SC)c(C(C)(O)C(=O)O)n1Cc1ccc(-c2ccccc2S(=O)(=O)NC(=O)OCc2ccccc2)cc1` (stereo not drawn) gave a melting point of 140 to 150 °C. With `CN1CCOC(CN2C(=O)C3(COc4cc5c(cc43)OCCO5)c3ccccc32)C1` (stereo not drawn) the melting point was 85 to 90 °C. `O=S(=O)(c1cc(Cl)[nH]c1-c1ccc(Cl)cc1)C(F)(F)F` showed a melting point of 109 to 112 °C. With `CN1c2ccccc2CN(C(=O)c2ccc(-c3ccccc3)cc2)c2ccccc21` the melting point was 198 to 201 °C. For `CCOC(=O)C1=C(COCC(C)(O)Cn2cnnc2)NC(C)=C(C(=O)OC)C1c1cccc(Cl)c1Cl` (stereo not drawn), the melting point was 172 to 176 °C. Work on `CC(C)(C)c1csc(N)c1C(N)=O` yielded a melting point of 145 °C. With `CCCn1nc2c(N)nc3ncccc3c2c1CC(C)(C)C(N)=O` the melting point was 254 to 257 °C. Molecule `COc1cccc(N2CCC(C(N)=O)CC2)c1` has a melting point of 153 to 156 °C. Work on `CCCCC(=O)N(Cc1ccc(Br)cc1)[C@H](C(=O)O)C(C)C` yielded a melting point of 123 °C. `CCOC(=O)CNC(=O)c1cc(F)c(F)cc1N` showed a melting point of 147 °C. For `Nc1nc2ccccc2c2c1nc1n2C(COCc2ccccc2)COC1` (stereo not drawn), the melting point was 185 to 186 °C. With `OC(c1ccccc1)c1cc2cc(Br)ccc2o1` (stereo not drawn) the melting point was 56 to 58 °C. `COc1ccc(-c2c(-c3ccc(S(C)(=O)=O)cc3)n(C)n(C)c2=O)cc1` gave a melting point of 245 to 247 °C. Work on `CCCCC12CCC3=C(CCc4cc(OC)ccc43)C1CCC2=O` (stereo not drawn) yielded a melting point of 105 to 108 °C. Molecule `CC1CN(c2c(F)cc3c(=O)c(C(=O)O)cn4c3c2CC4C)CC(C)N1C` (single isomer, unassigned; (+)) has a melting point of 204 to 206 °C. Work on `COCCc1nc2c(N)nc3c(c2n1CCCCNS(=O)(=O)c1ccc(F)cc1)CCCC3` yielded a melting point of 191 to 193 °C. Molecule `Cn1c(COc2ccc(CC3SC(=O)NC3=O)cc2)nc2ccc(OCCc3ccc(C(C)(C)C)c(NC(=O)Nc4ccc(C(F)(F)F)cc4)c3)cc21` (stereo not drawn) has a melting point of 165 to 167 °C. For `CC1OC(=O)c2c(S)cccc21` (stereo not drawn), the melting point was 40 °C. Molecule `O=c1c2cc(F)c(Cl)nc2n(-c2ccc(F)cc2)c(=O)n1OCc1ccccc1` has a melting point of 208 to 209 °C. `OCC1OC(n2cnc3c(NCc4cccc(I)c4)ncnc32)C(O)C1O` (stereo not drawn) showed a melting point of 172 °C. `CN(C)CCCN=C1CC(c2ccc(Cl)cc2Cl)Cc2[nH]c3ccc(Cl)cc3c(=O)c21` (stereo not drawn) gave a melting point of 168 to 170 °C. In the case of `Sc1nc2cc(C(c3ccccc3)n3ccnc3)ccc2[nH]1` (stereo not drawn), the melting point is reported as 260 °C. `CCOc1ccc(S(=O)c2ccccc2)cc1[N+](=O)[O-]` (stereo not drawn) gave a melting point of 119 to 121 °C. For `CN1CCC(c2c[nH]c3ccc(NS(=O)(=O)c4ccc(I)cc4)cc23)CC1`, the melting point was over 250 °C. With `COC(=O)c1nc(S)n(C(c2ccccc2)c2ccccc2)c1C(=O)OC` the melting point was 154 °C. Molecule `O=C1C=CC2(C=C1)CC(=O)N2OCc1ccccc1` has a melting point of 77 to 79 °C. `Nc1cc(F)c(Cl)c(Br)c1Cl` gave a melting point of 126 to 130 °C. Molecule `C=CSc1nc(-c2ccc(OC)cc2)c(-c2ccc(OC)cc2)[nH]1` has a melting point of 114 to 115 °C. `O=C(CC(=O)c1ccc(O)cc1O)c1cc(OCc2ccccc2)cc(OCc2ccccc2)c1` gave a melting point of 179 to 181 °C. Work on `CCOc1c(CCl)c(CCl)c(OCC)c2ccccc12` yielded a melting point of 110 °C. `O=C1CCCc2c1c1ccccc1n2Cc1ccccc1` showed a melting point of 157 to 158 °C. In the case of `CCOC(=O)c1ccc(/C=C(\COCc2ccc(OC)cc2)Cn2ccnc2)c(OC)c1`, the melting point is reported as 74 to 74.5 °C. In the case of `OCCc1nccn1CCCc1ccc(O)cc1`, the melting point is reported as 116 to 117 °C. For `CCCCCCNC(=O)[C@@H]1CCC(=O)N1`, the melting point was 95 °C. `O=c1cc(-c2ccoc2)c2ccc(O)cc2o1` gave a melting point of 229 to 232 °C. For `O=C(Oc1ccccc1)N1CCC2(CC1)SC(c1ccc(Cl)cc1)c1ccccc12` (stereo not drawn), the melting point was 211 to 212 °C. `O=c1c(CCO)c(O)c2cccnc2n1-c1ccccc1` showed a melting point of 235 to 236 °C. `O=c1[nH]c2cc(Cl)ccc2n1C1CCN(CCCn2c(=S)[nH]c3ccccc32)CC1` showed a melting point of 267 °C. Molecule `CC1(C)OC(=S)Nc2ccc(-c3cc(Br)cc(OC(F)(F)F)c3)cc21` has a melting point of 192 to 193 °C. For `O=c1c2c[nH]c3ccccc3n-2c(=O)n1-c1ccccc1`, the melting point was 231 to 234 °C. Work on `COc1ccccc1-c1nc(-c2cccnc2)c(C)[nH]1` yielded a melting point of 198 to 200 °C. `CCN(CC)CCNC(=O)c1cc(Cl)c(N)cc1OCCS(C)=O` (stereo not drawn) showed a melting point of 110 to 114 °C. `Cc1cc(C)c2nsnc2c1[N+](=O)[O-]` gave a melting point of 105 to 106 °C. `CC(C)(C)CC(=O)Nc1ccc2ncnc(N)c2c1` gave a melting point of 273 to 274 °C. `O=C1c2ccccc2C(=O)c2sc(-c3ccc(Br)o3)nc21` gave a melting point of over 260 °C. `CCOCc1nc2c(N)nc3cc(OCc4ccccc4)ccc3c2n1CC(C)C` showed a melting point of 201 to 203 °C. With `CCCCCCCCn1c(=O)c2c(Cl)cc(Cl)cc2n(Cc2ccccc2)c1=O` the melting point was 82 to 85 °C. In the case of `C#CCOc1cc(NC(=O)CC(CC(=O)O)C(F)(F)F)ccc1Cl` (stereo not drawn), the melting point is reported as 128 to 130 °C. Work on `CCOC(=O)Cn1c(-c2ccc(F)cc2)nc2cccnc21` yielded a melting point of 126 to 128 °C. For `Fc1c(F)c(Br)c2nsnc2c1Br`, the melting point was 148 to 149 °C. Work on `CCCc1nn(-c2ccc(C(F)(F)F)cn2)cc1CCCOc1ccc(CCC(=O)O)c(OC)c1` yielded a melting point of 114 to 115 °C. With `CCOCc1c(C)nc2c3cccc(Cl)c3ccn12` the melting point was 94 to 96 °C. Work on `CNC(Cc1ccccc1NC(=O)C(C)(C)C)c1cccs1` (stereo not drawn) yielded a melting point of 78.5 to 82 °C. `CCCOc1nc2sc(Cl)cc2c(=O)n1CCC` gave a melting point of 62 to 65 °C. For `Cc1ccc(S(=O)(=O)N2CCC(S(=O)(=O)c3ccc(Cl)cc3)CC2)cc1`, the melting point was 263 to 264 °C. Molecule `Clc1nc2ccnn2c2ncccc12` has a melting point of 160 °C. With `NCCNC(=O)CNC(=O)Cc1ccccc1` the melting point was 132 to 137 °C. With `COc1cc(OC)c(-c2nc(C)no2)cc1C=O` the melting point was 182 to 183 °C. Molecule `COc1ccc(CN(C)CC(O)COc2ccc(NC(=O)c3cccc4c(=O)c5cccc(OC)c5[nH]c34)cc2)cc1OC` (stereo not drawn) has a melting point of 175 °C. `COC(=O)c1scc(-c2ccccc2)c1S(N)(=O)=O` showed a melting point of 172 to 175 °C. `COc1ccccc1N1CCN(CCn2c(=O)[nH]c3ccsc3c2=O)CC1` gave a melting point of 222 to 223 °C. With `CC(COC(=O)C(=O)Nc1nc(-c2ccccc2)cs1)c1ccccc1` (stereo not drawn) the melting point was 140 to 141 °C. Molecule `COc1ccc(N(C(C)=O)C2=NN(c3ccc([N+](=O)[O-])cc3)C(=O)C2)cc1` has a melting point of 165 to 167 °C. With `O=C(O)c1ccc(Cl)cc1Sc1ccc(F)cc1` the melting point was 204 to 213 °C. In the case of `Nc1cnc2cccnc2c1Cl`, the melting point is reported as 188 to 190 °C. Molecule `COc1ccc2c(c1)N(C(C)=O)C1=C(S2)C(S(C)(=O)=O)=CCC1=O` has a melting point of 160 °C. For `O=CN1CCN(C(=O)COc2cc(-c3ccccc3)nc3ccccc23)CC1`, the melting point was 170 °C. `Nc1ccc(CCC(=O)c2ccc(F)cc2)cc1` showed a melting point of 54 to 55 °C. Molecule `Cc1cccc(C)c1N(CCCC(=O)NCC(=O)O)C(=O)c1ccc(Cl)cc1` has a melting point of 141 to 142 °C. With `Oc1c(C(=Nc2ccccc2)Nc2ccccc2)sc2ccccc12` the melting point was 152 to 153 °C. Work on `CNC1CN(c2cc3c(cc2F)c(=O)c(C(=O)O)cn3C2CC2)C1` yielded a melting point of 245 to 249 °C. `Cc1ccc(-c2ncn3c2CN(N(C)C)c2ccccc2-3)cc1` gave a melting point of 204 to 205 °C. `CCOP(=O)(OCC)C1CCNc2ccc(C(F)(F)F)cc21` (stereo not drawn) showed a melting point of 94 °C.
